Experimental data as given in PubChem BioAssay AID1963977 (Molecular Pharmacology Branch, DTP, NCI, 2024).
Where “and” joins values, the source holds several entries; their conditions need not be identical. Equal values may be shown once.

Tested on: 624824-186-R-J3-PDC multicell spheroids, viability
Experiment: Anticancer human tumor 624824-186-R-J3-PDC patient-derived colon adenocarcinoma cell line growth inhibition [PI3K]
Details: for viability, T/C: stronger effect = lower value
Excerpt: Combinatorial screen of targeted agents with the PI3K inhibitors inavolisib, alpelisib, duvelisib, and copanlisib in multi-cell type tumor spheroids
A high-throughput screen of multi-cell type tumor spheroids was designed to identify active combinations of targeted small molecules and PI3K pathway inhibitors. Complex spheroids include a stromal component modeled by human endothelial cells (HUVEC) and fibroblasts modeled by human mesenchymal stem cells (MSCs). The concentration ranges selected for each drug and investigational agent were based upon clinically achievable concentrations if the clinical Cmax of the agent was known.
Compounds. The drugs and investigational agents: inavolisib (NSC800729), alpelisib (NSC765974), duvelisib (NSC772469), copanlisib (NSC816437), ipatasertib (NSC767898), afuresertib (NSC778305), talazoparib (NSC767125), sapanisertib (NSC764658), selumetinib (NSC741078), tovorafenib (DAY101, NSC766906), vemurafenib (NSC761431), ravoxertinib (NSC781343), sotorasib (NSC818433), MRTX1133 (NSC 836407), abemaciclib (NSC 768073), palbociclib (NSC758247), venetoclax (NSC 766270), SY5609 (NSC837396), enzalutamide (NSC755605), and darolutamide (NSC825331), were obtained from the National Cancer Institute (NCI) Developmental Therapeutics Program Chemical Repository. The FDA-approved anticancer drug set is available from the NCI Developmental Therapeutics Program. […] The stock solutions were prepared in dimethyl sulfoxide (DMSO, Sigma-Aldrich, St. Louis, MO, cat. D2650) at 800-fold the tested concentration and stored at -70 degrees C prior to their use. All drugs and investigational agents were tested over a range starting from a high concentration at or near the clinical Cmax and decreasing in half-log increments. If the clinical Cmax for an agent had not been determined, the highest concentration tested was 10 microM.
Cell Culture. All cells were maintained in an incubator at 37 degrees C and 5% CO2 with 95% humidity. The PDC lines were cultured according to standard operating procedures established by the NCI PDMR (https://pdmr.cancer.gov/sops/default.htm). All PDCs were thawed and cultured in Matrigel-coated flasks prepared with a working solution of 1X Ham's F-12 nutrient mix, without supplementation (Invitrogen, Waltham, MA, cat. 11765054), 100 U/mL penicillin-streptomycin (Invitrogen, cat. 15140122), and 2.5% Matrigel (Corning Inc., Corning, NY, cat. 354248) for the first three passages. The 354836-022-R-J1-PDC, 475296-252-R-J1-PDC, and 997726-040-R-J2-PDC lines were cultured in 6A media, which includes advanced DMEM/F-12 (Thermo Fisher Scientific, cat. 12634028), 10 mM HEPES (Thermo Fisher Scientific, cat. 15630080), 1X GlutaMAX supplement (Thermo Fisher Scientific, cat. 35050061), 0.1 mg/mL primocin (InvivoGen, San Diego, CA, cat. ant-pm-2), 10% defined fetal bovine serum, heat inactivated (HyClone Laboratories Inc., Logan, UT, cat. SH30070.03HI), 50% L-WRN conditioned media (ATCC, cat. CRL-3276), 1.25 mM N-Acetyl-L-cysteine (Sigma-Aldrich, cat. A9165), 10 mM nicotinamide (Sigma-Aldrich, cat. N0636), 1X B-27 supplement (Thermo Fisher Scientific, cat. 17504044), 1X N-2 supplement (Thermo Fisher Scientific, cat. 17502048), and 10 microM Y-27632 dihydrochloride (Tocris Bioscience, Bristol, United Kingdom, cat. 1254). The 624824-186-R-J2-PDC line was cultured in 6C/Colon 1B media, which includes all 6A media components plus 50 ng/mL human EGF recombinant protein (Thermo Fisher Scientific, cat. PHG0311). […]

[1] = curve of first compound, second compound 0.0316 µM
[2] = curve of first compound, second compound 0.1 µM
[3] = curve of first compound, second compound 0.316 µM
[4] = curve of first compound, second compound 1 µM
[5] = second compound 0.0316 µM, first compound 0.0316 µM
[6] = second compound 0.0316 µM, first compound 0.1 µM
[7] = second compound 0.0316 µM, first compound 0.316 µM
[8] = second compound 0.0316 µM, first compound 1 µM
[9] = second compound 0.0316 µM, first compound 3.16 µM
[10] = second compound 0.0316 µM, first compound 10 µM
[11] = second compound 0.1 µM, first compound 0.0316 µM
[12] = second compound 0.1 µM, first compound 0.1 µM
[13] = second compound 0.1 µM, first compound 0.316 µM
[14] = second compound 0.1 µM, first compound 1 µM
[15] = second compound 0.1 µM, first compound 3.16 µM
[16] = second compound 0.1 µM, first compound 10 µM
[17] = second compound 0.316 µM, first compound 0.0316 µM
[18] = second compound 0.316 µM, first compound 0.1 µM
[19] = second compound 0.316 µM, first compound 0.316 µM
[20] = second compound 0.316 µM, first compound 1 µM
[21] = second compound 0.316 µM, first compound 3.16 µM
[22] = second compound 0.316 µM, first compound 10 µM
[23] = second compound 1 µM, first compound 0.0316 µM
[24] = second compound 1 µM, first compound 0.1 µM
[25] = second compound 1 µM, first compound 0.316 µM
[26] = second compound 1 µM, first compound 1 µM
[27] = second compound 1 µM, first compound 3.16 µM
[28] = second compound 1 µM, first compound 10 µM
[29] = curve of first compound, second compound 0.00316 µM
[30] = curve of first compound, second compound 0.01 µM
[31] = second compound 0.00316 µM, first compound 0.0316 µM
[32] = second compound 0.00316 µM, first compound 0.1 µM
[33] = second compound 0.00316 µM, first compound 0.316 µM
[34] = second compound 0.00316 µM, first compound 1 µM
[35] = second compound 0.00316 µM, first compound 3.16 µM
[36] = second compound 0.00316 µM, first compound 10 µM
[37] = second compound 0.01 µM, first compound 0.0316 µM
[38] = second compound 0.01 µM, first compound 0.1 µM
[39] = second compound 0.01 µM, first compound 0.316 µM
[40] = second compound 0.01 µM, first compound 1 µM
[41] = second compound 0.01 µM, first compound 3.16 µM
[42] = second compound 0.01 µM, first compound 10 µM
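Further: spheroids exposed to agents for seven days before luminescence read.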
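Wherever viability, T/C is given: luminescent signal used as a stand-in for spheroid viability; percent viability relative to DMSO vehicle control wells taken as 100%.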

C=CC(=O)N1CCN(c2nc(=O)n(-c3c(C)ccnc3C(C)C)c3nc(-c4c(O)cccc4F)c(F)cc23)C(C)C1 (stereo not drawn) + Cc1nc(NC(=O)N2CCCC2C(N)=O)sc1-c1ccnc(C(C)(C)C(F)(F)F)c1
IC50 [1]: > 10 µM
IC50 [2]: > 10 µM
IC50 [3]: > 10 µM
IC50 [4]: > 10 µM
IC50 (curve of first compound, second compound 3.16 µM): > 10 µM
IC50 (curve of first compound, second compound 10 µM): > 10 µM
viability, T/C [5]: 103%
viability, T/C [6]: 108%
viability, T/C [7]: 106%
viability, T/C [8]: 94%
viability, T/C [9]: 107%
viability, T/C [10]: 113%
viability, T/C [11]: 112%
viability, T/C [12]: 101%
viability, T/C [13]: 95.5%
viability, T/C [14]: 110%
viability, T/C [15]: 113%
viability, T/C [16]: 105%
viability, T/C [17]: 109%
viability, T/C [18]: 109%
viability, T/C [19]: 116%
viability, T/C [20]: 106%
viability, T/C [21]: 103%
viability, T/C [22]: 103%
viability, T/C [23]: 103%
viability, T/C [24]: 108%
viability, T/C [25]: 104%
viability, T/C [26]: 116%
viability, T/C [27]: 105%
viability, T/C [28]: 101%
viability, T/C (second compound 3.16 µM, first compound 0.0316 µM): 83.6%
viability, T/C (second compound 3.16 µM, first compound 0.1 µM): 92.8%
viability, T/C (second compound 3.16 µM, first compound 0.316 µM): 90.9%
viability, T/C (second compound 3.16 µM, first compound 1 µM): 78.7%
viability, T/C (second compound 3.16 µM, first compound 3.16 µM): 95.6%
viability, T/C (second compound 3.16 µM, first compound 10 µM): 78.5%
viability, T/C (second compound 10 µM, first compound 0.0316 µM): 68.4%
viability, T/C (second compound 10 µM, first compound 0.1 µM): 69%
viability, T/C (second compound 10 µM, first compound 0.316 µM): 71.2%
viability, T/C (second compound 10 µM, first compound 1 µM): 76.1%
viability, T/C (second compound 10 µM, first compound 3.16 µM): 69.8%
viability, T/C (second compound 10 µM, first compound 10 µM): 65.3%

CCN1CCN(Cc2ccc(Nc3ncc(F)c(-c4cc(F)c5nc(C)n(C(C)C)c5c4)n3)nc2)CC1
viability, T/C (compound 0.00316 µM): 108% (2×) and 105% and 107%
viability, T/C (compound 0.01 µM): 106% [middle of 4 runs]
viability, T/C (compound 0.0316 µM): 112% (2×) and 105% and 115%
viability, T/C (compound 0.1 µM): 107% [middle of 4 runs]
viability, T/C (compound 0.316 µM): 104% [middle of 4 runs]
viability, T/C (compound 1 µM): 104% [middle of 4 runs]
IC50 (curve of compound): > 1 µM

CNC(=O)c1ccc(N2C(=S)N(c3ccc(C#N)c(C(F)(F)F)c3)C(=O)C2(C)C)cc1F + CC(Nc1ccc2c(c1)OCCn1cc(N3C(=O)OCC3C(F)F)nc1-2)C(N)=O
IC50 [29]: > 10 µM
IC50 [30]: > 10 µM
IC50 [1]: > 10 µM
IC50 [2]: > 10 µM
IC50 [3]: > 10 µM
IC50 [4]: > 10 µM
viability, T/C [31]: 105%
viability, T/C [32]: 104%
viability, T/C [33]: 104%
viability, T/C [34]: 87.4%
viability, T/C [35]: 97%
viability, T/C [36]: 106%
viability, T/C [37]: 103%
viability, T/C [38]: 101%
viability, T/C [39]: 108%
viability, T/C [40]: 97.1%
viability, T/C [41]: 96.1%
viability, T/C [42]: 99.1%
viability, T/C [5]: 95.4%
viability, T/C [6]: 104%
viability, T/C [7]: 102%
viability, T/C [8]: 97.3%
viability, T/C [9]: 99.5%
viability, T/C [10]: 99.6%
viability, T/C [11]: 99.6%
viability, T/C [12]: 101%
viability, T/C [13]: 103%
viability, T/C [14]: 101%
viability, T/C [15]: 109%
viability, T/C [16]: 80.3%
viability, T/C [17]: 89.4%
viability, T/C [18]: 90%
viability, T/C [19]: 94.2%
viability, T/C [20]: 97.8%
viability, T/C [21]: 92%
viability, T/C [22]: 82%
viability, T/C [23]: 90.6%
viability, T/C [24]: 89.2%
viability, T/C [25]: 95.8%
viability, T/C [26]: 90.5%
viability, T/C [27]: 88.9%
viability, T/C [28]: 76.4%

C=CC(=O)N1CCN(c2nc(=O)n(-c3c(C)ccnc3C(C)C)c3nc(-c4c(O)cccc4F)c(F)cc23)C(C)C1 (stereo not drawn) + CC(Nc1ccc2c(c1)OCCn1cc(N3C(=O)OCC3C(F)F)nc1-2)C(N)=O
IC50 [29]: > 10 µM
IC50 [30]: > 10 µM
IC50 [1]: > 10 µM
IC50 [2]: > 10 µM
IC50 [3]: > 10 µM
IC50 [4]: > 10 µM
viability, T/C [31]: 103%
viability, T/C [32]: 94.4%
viability, T/C [33]: 98.8%
viability, T/C [34]: 88.2%
viability, T/C [35]: 99.7%
viability, T/C [36]: 105%
viability, T/C [37]: 105%
viability, T/C [38]: 99.2%
viability, T/C [39]: 96.9%
viability, T/C [40]: 94%
viability, T/C [41]: 99.6%
viability, T/C [42]: 106%
viability, T/C [5]: 97%
viability, T/C [6]: 98.5%
viability, T/C [7]: 102%
viability, T/C [8]: 96%
viability, T/C [9]: 113%
viability, T/C [10]: 99.6%
viability, T/C [11]: 91.7%
viability, T/C [12]: 97.2%
viability, T/C [13]: 107%
viability, T/C [14]: 102%
viability, T/C [15]: 107%
viability, T/C [16]: 104%
viability, T/C [17]: 90.1%
viability, T/C [18]: 96.8%
viability, T/C [19]: 94.5%
viability, T/C [20]: 94%
viability, T/C [21]: 108%
viability, T/C [22]: 98.4%
viability, T/C [23]: 95.1%
viability, T/C [24]: 83.7%
viability, T/C [25]: 87.4%
viability, T/C [26]: 87%
viability, T/C [27]: 87.4%
viability, T/C [28]: 91.3%
